Experimental data from patent US10155798B2, “Anti-obesity compounds derived from neuromedin U” (The Regents of the University of California, priority 2013, dated 2018).
Where a SMILES comes first, the peptide text is derived from it. [ ]: non-standard residue; d: D form. The star is where a group is joined. PEG12 = NCCOCCOCCOCCOCCOCCOCCOCCOCCOCCOCCOCCOCCC(=O)O; Oic = O=C(O)[C@@H]1C[C@@H]2CCCC[C@@H]2N1; Palmitoyl = CCCCCCCCCCCCCCCC(=O)*; Aib = CC(C)(N)C(=O)O; Ahx = NCCCCCC(=O)O

Experiments:
[1] = target: T1, NMUR2 (neuromedin U 2 receptor) (Homo sapiens, UniProt Q9GZQ4); assay: Calcium mobilization assay, HEK-NMU2 cells; assay type: cell-based; settings: HEK293 cells expressing NMU2 receptor, NA = not active
T1 construct: expressed in transfected cells; host or cells: HEK293 (HEK-NMU2)
T1 sequence (Q9GZQ4 whole entry): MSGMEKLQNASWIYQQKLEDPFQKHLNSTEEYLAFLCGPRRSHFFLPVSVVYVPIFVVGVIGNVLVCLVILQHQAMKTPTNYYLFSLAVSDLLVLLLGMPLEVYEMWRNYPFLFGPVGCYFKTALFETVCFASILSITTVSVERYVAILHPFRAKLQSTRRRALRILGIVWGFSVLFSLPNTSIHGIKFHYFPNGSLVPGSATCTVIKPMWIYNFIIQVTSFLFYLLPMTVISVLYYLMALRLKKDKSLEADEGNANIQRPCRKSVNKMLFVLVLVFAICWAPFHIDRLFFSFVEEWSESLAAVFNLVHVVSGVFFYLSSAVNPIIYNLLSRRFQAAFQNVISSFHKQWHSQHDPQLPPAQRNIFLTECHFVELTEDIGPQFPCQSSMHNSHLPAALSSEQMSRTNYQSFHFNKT
Protocol: To test whether neuromedin U can be modified/derivatized to yield truncated bioactive compound(s) that may be useful as therapeutics, we synthesized a small library (25 peptides) of hNMU analogs utilizing various stabilization protocols, including: cyclization, lipidation, introduction of α,α-disubstituted and N-methylated amino acids, retro-inverso-approach, and combination of such (see Table 1). Subsequently all analogues were tested against human neuromedin U receptors (NMUR1 and NMUR2) in calcium mobilization assay (collaboration with Dr Gary Willars, University of Leicester, UK).
HEK293 cells expressing either the neuromedin U 1 receptor or neuromedin U 2 receptor (HEK-NMU1 and HEK-NMU2 respectively) were grown to approximately 90% confluence in ELISA strip plates (96-well format) pre-coated with poly-D-lysine (0.1% w/v) and loaded for 45 min at 37° C. with 2 iM fluo-4-AM in Krebs'-HEPES buffer with bovine serum albumin (KHB-BSA; composition: 10 mM HEPES; 4.2 mM NaHCO3; 11.7 mM D-glucose; 1.18 mM MgSO4.7H2O; 1.18 mM KH2PO4; 4.69 mM KCl; 118 mM NaCl; 1.3 mM CaCl2.2H2O; 0.1% (w/v) BSA; pH 7.4). Monolayers were then washed and equilibrated for 5 min at 37° C. in 100 il KHB-BSA for subsequent recording of fluorescence as an index of intracellular [Ca^2+] ([Ca^2+]i) using a microplate reader (NOVOstar; BMG LABTECH, Aylesbury, U.K.). Briefly, 20 μl of KHB-BSA, with or without ligand, was added into the well (200 μl/s) and fluorescence determined at 0.5 s intervals by excitation at 485 nm and collection of emitted light at 520 nm. Changes in fluorescence above basal levels (before ligand addition) were determined. […] Fmax was obtained by removal of buffer and addition of KHB-BSA buffer containing 4 mM [Ca^2+] and ionomycin (2 μM) to representative wells and the fluorescence measured for 10 min. Fmin was then derived by replacing buffer with Ca^2+-free KHB-BSA buffer containing 2 mM EGTA and fluorescence measured for 10 min. For the determination of concentration-response relationships, the maximal change in [Ca^2+]i was calculated following ligand addition. Concentration-response curves were then fitted using a four-parameter logistic equation to determine EC50 values (GraphPad Software Inc., Calif.).

[2] = system: diet induced obese (DIO) mouse model; assay: Single dose in vivo anorectic experiments in DIO mouse model; settings: DIO mice; for anorectic activity, single dose: single dose 5344 nMole/kg, FIG. 3A
Excerpt: FIG. 3. Single dose in vivo experiments performed in DIO mouse model. (A) Comparison of anorectic effects of NM4 and NM7. (B) NM4 dose response experiments. (C) Comparison of NM4 and NM4A anorectic activity.
Initially we focused on single dose experiments comparing NM4 and NM7 at 5344 nMole/kg dose (FIG. 3).

[3] = cited from earlier work

Work on `CC(C)C[C@H](NC(=O)[C@H](Cc1ccccc1)NC(=O)[C@H](Cc1ccc(O)cc1)NC(=O)CNC(=O)[C@H](CCCNC(=N)N)NC(=O)[C@H](CO)NC(=O)[C@H](CCC(N)=O)NC(=O)[C@H](CO)NC(=O)[C@H](C)NC(=O)[C@H](Cc1ccccc1)NC(=O)[C@@H]1CCCN1C(=O)[C@H](CO)NC(=O)[C@H](CCC(N)=O)NC(=O)[C@H](Cc1ccccc1)NC(=O)[C@H](CCC(=O)O)NC(=O)[C@H](CCC(=O)O)NC(=O)[C@H](CC(=O)O)NC(=O)[C@@H](NC(=O)[C@H](CCCNC(=N)N)NC(=O)[C@@H](N)Cc1ccccc1)C(C)C)C(=O)N[C@@H](Cc1ccccc1)C(=O)N[C@@H](CCCNC(=N)N)C(=O)N1CCC[C@H]1C(=O)N[C@@H](CCCNC(=N)N)C(=O)N[C@@H](CC(N)=O)C(N)=O` [hNMU, FRVDEEFQSPFASQSRGY-FL-Phe-Arg-Pro-R-Asn, reference compound] (H-FRVDEEFQSPFASQSRGYFLFRPRN-NH2) yielded an EC50 [1] of 0.49 ± 0.13 nM.

`CC(C)C[C@H](NC(=O)[C@H](Cc1ccccc1)NC(=O)C(C)(C)N)C(=O)N[C@@H](Cc1ccccc1)C(=O)N[C@@H](CCCNC(=N)N)C(=O)N1CCC[C@H]1C(=O)N[C@@H](CCCNC(=N)N)C(=O)N[C@@H](CC(N)=O)C(N)=O` [Peptide M2, Aib-FL-Phe-Arg-Pro-R-Asn] (H-[Aib]FLFRPRN-NH2) gave an EC50 [1] of 0.21 ± 0.07 nM.

In the case of `CCCCCCCCCCCCCCCC(=O)NCCOCCOCCOCCOCCOCCOCCOCCOCCOCCOCCOCCOCCC(=O)NC(C)(C)C(=O)N[C@@H](Cc1ccccc1)C(=O)N[C@@H](CC(C)C)C(=O)N[C@@H](Cc1ccccc1)C(=O)N[C@@H](CCCNC(=N)N)C(=O)N1CCC[C@H]1C(=O)N[C@@H](CCCNC(=N)N)C(=O)N[C@@H](CC(N)=O)C(=O)NC(C)(C)C(N)=O` [Peptide M7, Pal-dPEG12-Aib-FL-Phe-Arg-Pro-R-Asn-Aib] ({Palmitoyl-PEG12}-[Aib]FLFRPRN[Aib]-NH2; N-terminus and C-terminus assumed), the “anorectic activity, single dose” value [2] is reported as “very limited activity in vivo”.

With `CC(C)C[C@H](NC(=O)[C@H](Cc1ccccc1)NC(=O)CCCCCNC(=O)[C@@H](N)CS)C(=O)N[C@@H](Cc1ccccc1)C(=O)N[C@@H](CCCNC(=N)N)C(=O)N1[C@H](C(=O)N[C@@H](CCCNC(=N)N)C(=O)N[C@@H](CC(N)=O)C(=O)NCCCCCC(=O)N[C@@H](CS)C(N)=O)C[C@@H]2CCCC[C@@H]21` [NM9, C-Ahx-FL-Phe-Arg-Oic-R-Asn-Ahx-C] (H-C[Ahx]FLFR[Oic]RN[Ahx]C-NH2) the EC50 [1] was 708 ± 171 nM.

For `CCCCCCCCCCCCCCCC(=O)NCCOCCOCCOCCOCCOCCOCCOCCOCCOCCOCCOCCOCCC(=O)NC(C)(C)C(=O)N[C@@H](Cc1ccccc1)C(=O)N[C@@H](CC(C)C)C(=O)N[C@@H](Cc1ccccc1)C(=O)N[C@@H](CCCNC(=N)N)C(=O)N1CCC[C@H]1C(=O)N[C@@H](CCCNC(=N)N)C(=O)N[C@@H](CC(N)=O)C(N)=O` [Peptide M4, Pal-dPEG12-Aib-FL-Phe-Arg-Pro-R-Asn] ({Palmitoyl-PEG12}-[Aib]FLFRPRN-NH2), the “anorectic activity, single dose” value [2] was “significant anorectic activity”, the “dose dependence of anorectic effects” value ([2]; single dose, FIG. 3B) was “dose-dependent” and the EC50 [1] was 1.7 ± 0.29 nM.

In the case of semaglutide, the plasma half-life ([3]; in vivo) is listed as 160 h.

`CC(=O)N[C@@H](Cc1ccccc1)C(=O)N[C@@H](CC(C)C)C(=O)N[C@@H](Cc1ccccc1)C(=O)N[C@@H](CCCNC(=N)N)C(=O)N1CCC[C@H]1C(=O)N[C@@H](CCCNC(=N)N)C(=O)N[C@@H](CC(N)=O)C(N)=O` [Peptide M1, Ac-FL-Phe-Arg-Pro-R-Asn] (Ac-FLFRPRN-NH2) gave an EC50 [1] of 0.6 ± 0.19 nM.

In the case of `CC(C)C[C@H](NC(=O)[C@H](Cc1ccccc1)NC(=O)CCCCCNC(=O)[C@@H](N)CS)C(=O)N[C@@H](Cc1ccccc1)C(=O)N[C@@H](CCCNC(=N)N)C(=O)N1CCC[C@H]1C(=O)N[C@@H](CCCNC(=N)N)C(=O)N[C@@H](CC(N)=O)C(=O)NCCCCCC(=O)N[C@@H](CS)C(N)=O` [Peptide M8, C-Ahx-FL-Phe-Arg-Pro-R-Asn-Ahx-C] (H-C[Ahx]FLFRPRN[Ahx]C-NH2), the EC50 [1] is reported as 240 ± 35.7 nM.

For “Neuromedin U (FRVDEEFQSPFASQSRGYFLFRPRN) [NMU]”, the “half-life after subcutaneous (sc) injection” value ([3]; subcutaneous injection) is listed as “less than 5 min”.

In the case of `CCCCCCCCCCCCCCCC(=O)NC(C)(C)C(=O)N[C@@H](Cc1ccccc1)C(=O)N[C@@H](CC(C)C)C(=O)N[C@@H](Cc1ccccc1)C(=O)N[C@@H](CCCNC(=N)N)C(=O)N1CCC[C@H]1C(=O)N[C@@H](CCCNC(=N)N)C(=O)N[C@@H](CC(N)=O)C(N)=O` [Peptide M3, Pal-Aib-FL-Phe-Arg-Pro-R-Asn] (Palmitoyl-[Aib]FLFRPRN-NH2), the EC50 [1] is reported as 170 ± 34.9 nM.

Work on `CC(C)C[C@H](NC(=O)[C@H](Cc1ccccc1)NC(=O)C(C)(C)N)C(=O)N[C@@H](Cc1ccccc1)C(=O)N[C@@H](CCCNC(=N)N)C(=O)N1CCC[C@H]1C(=O)N[C@@H](CCCNC(=N)N)C(=O)N[C@@H](CC(N)=O)C(=O)NC(C)(C)C(N)=O` [Peptide M5, Aib-FL-Phe-Arg-Pro-R-Asn-Aib] (H-[Aib]FLFRPRN[Aib]-NH2) yielded an EC50 [1] of 50.1 ± 16.2 nM.
